From ChEMBL document CHEMBL5212743, “Selectivity Literature for EUbOPEN Chemogenomics Library wave 3” (2023)

Key:
[1] = molecular target: T1, Mitogen-activated protein kinase 1 (Homo sapiens, UniProt P28482); experiment: Selectivity interaction (Ambit kinase binding assay panel) EUB0000609a MAPK1; settings: at 10 µM
[2] = molecular target: T2, Leukocyte tyrosine kinase receptor (Homo sapiens, UniProt P29376); experiment: Selectivity interaction (Ambit kinase binding assay panel) EUB0000609a LTK; settings: at 10 µM
T2 sequence (P29376 whole entry): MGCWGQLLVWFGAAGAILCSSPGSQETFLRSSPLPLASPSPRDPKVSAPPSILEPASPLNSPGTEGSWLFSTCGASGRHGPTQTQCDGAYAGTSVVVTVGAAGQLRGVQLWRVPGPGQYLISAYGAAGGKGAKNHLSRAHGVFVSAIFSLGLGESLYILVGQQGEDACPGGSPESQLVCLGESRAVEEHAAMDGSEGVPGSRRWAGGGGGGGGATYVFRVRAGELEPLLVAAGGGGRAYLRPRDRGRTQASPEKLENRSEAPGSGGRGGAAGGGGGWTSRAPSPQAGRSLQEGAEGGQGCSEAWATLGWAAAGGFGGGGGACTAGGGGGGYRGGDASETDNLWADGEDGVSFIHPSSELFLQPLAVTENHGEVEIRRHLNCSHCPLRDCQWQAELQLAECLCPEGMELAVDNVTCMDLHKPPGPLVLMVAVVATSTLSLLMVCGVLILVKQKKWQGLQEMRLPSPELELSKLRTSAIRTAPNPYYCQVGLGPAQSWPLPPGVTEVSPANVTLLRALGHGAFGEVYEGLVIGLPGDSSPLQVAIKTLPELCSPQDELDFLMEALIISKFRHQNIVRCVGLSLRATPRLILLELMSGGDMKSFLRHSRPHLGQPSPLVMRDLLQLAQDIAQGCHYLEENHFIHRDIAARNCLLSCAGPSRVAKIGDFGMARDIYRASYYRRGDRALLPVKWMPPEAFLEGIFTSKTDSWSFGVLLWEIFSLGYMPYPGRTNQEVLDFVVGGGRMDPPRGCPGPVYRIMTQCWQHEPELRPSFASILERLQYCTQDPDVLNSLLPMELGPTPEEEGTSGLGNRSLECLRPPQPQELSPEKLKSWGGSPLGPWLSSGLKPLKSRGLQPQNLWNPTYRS

[3] = molecular target: Serine/threonine-protein kinase N2 (Homo sapiens) (UniProt Q16513); experiment: Selectivity interaction (Ambit kinase binding assay panel) EUB0000609a PKN2; settings: at 10 µM
[4] = molecular target: T3, Dual specificity protein kinase CLK1 (Homo sapiens, UniProt P49759); experiment: Selectivity interaction (Enzymatic assay) EUB0000609a CLK1
[5] = molecular target: T1, Mitogen-activated protein kinase 1; experiment: Selectivity interaction (Enzymatic assay) EUB0000609a MAPK1
[6] = molecular target: T4, ALK tyrosine kinase receptor (Homo sapiens, UniProt Q9UM73); experiment: Selectivity interaction (Ambit kinase binding assay panel) EUB0000609a ALK; settings: at 10 µM
[7] = molecular target: T5, Insulin-like growth factor 1 receptor (Homo sapiens, UniProt P08069); experiment: Selectivity interaction (Ambit kinase binding assay panel) EUB0000609a IGF1R; settings: at 10 µM
T5 sequence (P08069 31-736 limits assumed): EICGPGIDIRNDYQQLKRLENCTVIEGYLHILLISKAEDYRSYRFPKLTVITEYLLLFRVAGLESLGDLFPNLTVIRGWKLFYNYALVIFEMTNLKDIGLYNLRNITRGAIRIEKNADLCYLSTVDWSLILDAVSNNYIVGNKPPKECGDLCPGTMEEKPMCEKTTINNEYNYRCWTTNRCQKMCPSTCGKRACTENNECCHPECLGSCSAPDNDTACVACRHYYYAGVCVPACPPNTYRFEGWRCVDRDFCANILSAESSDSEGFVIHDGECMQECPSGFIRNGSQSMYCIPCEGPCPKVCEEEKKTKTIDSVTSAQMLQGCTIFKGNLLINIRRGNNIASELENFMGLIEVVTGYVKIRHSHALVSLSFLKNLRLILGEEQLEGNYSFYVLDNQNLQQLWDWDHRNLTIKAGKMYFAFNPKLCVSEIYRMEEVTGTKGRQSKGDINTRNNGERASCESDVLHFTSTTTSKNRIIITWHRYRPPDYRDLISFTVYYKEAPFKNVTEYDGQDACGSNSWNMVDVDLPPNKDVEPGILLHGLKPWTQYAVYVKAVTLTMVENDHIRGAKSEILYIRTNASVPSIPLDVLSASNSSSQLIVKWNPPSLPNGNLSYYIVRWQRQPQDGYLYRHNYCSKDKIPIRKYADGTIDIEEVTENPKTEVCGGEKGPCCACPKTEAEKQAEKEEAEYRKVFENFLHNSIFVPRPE
T5 sequence (P08069 741-1367 limits assumed): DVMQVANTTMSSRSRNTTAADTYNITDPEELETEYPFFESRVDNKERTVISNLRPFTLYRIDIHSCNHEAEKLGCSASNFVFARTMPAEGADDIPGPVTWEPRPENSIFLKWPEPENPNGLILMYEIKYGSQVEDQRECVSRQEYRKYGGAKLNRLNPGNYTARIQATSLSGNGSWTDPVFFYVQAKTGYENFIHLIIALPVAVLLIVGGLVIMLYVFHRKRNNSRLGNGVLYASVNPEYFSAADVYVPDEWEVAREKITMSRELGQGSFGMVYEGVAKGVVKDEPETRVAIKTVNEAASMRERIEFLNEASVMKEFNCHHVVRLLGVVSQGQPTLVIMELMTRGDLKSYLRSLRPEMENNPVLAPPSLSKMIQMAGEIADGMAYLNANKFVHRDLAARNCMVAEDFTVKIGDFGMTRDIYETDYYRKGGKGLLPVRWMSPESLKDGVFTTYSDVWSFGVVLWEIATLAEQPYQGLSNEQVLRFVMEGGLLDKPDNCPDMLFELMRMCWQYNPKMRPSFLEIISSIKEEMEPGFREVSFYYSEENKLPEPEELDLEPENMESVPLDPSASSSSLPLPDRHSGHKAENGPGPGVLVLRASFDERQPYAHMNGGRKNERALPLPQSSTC

[8] = molecular target: T6, Protein-tyrosine kinase 2-beta (Homo sapiens, UniProt Q14289); experiment: Selectivity interaction (Enzymatic assay) EUB0000609a PTK2B
Target sequence in this assay (Q14289 whole entry): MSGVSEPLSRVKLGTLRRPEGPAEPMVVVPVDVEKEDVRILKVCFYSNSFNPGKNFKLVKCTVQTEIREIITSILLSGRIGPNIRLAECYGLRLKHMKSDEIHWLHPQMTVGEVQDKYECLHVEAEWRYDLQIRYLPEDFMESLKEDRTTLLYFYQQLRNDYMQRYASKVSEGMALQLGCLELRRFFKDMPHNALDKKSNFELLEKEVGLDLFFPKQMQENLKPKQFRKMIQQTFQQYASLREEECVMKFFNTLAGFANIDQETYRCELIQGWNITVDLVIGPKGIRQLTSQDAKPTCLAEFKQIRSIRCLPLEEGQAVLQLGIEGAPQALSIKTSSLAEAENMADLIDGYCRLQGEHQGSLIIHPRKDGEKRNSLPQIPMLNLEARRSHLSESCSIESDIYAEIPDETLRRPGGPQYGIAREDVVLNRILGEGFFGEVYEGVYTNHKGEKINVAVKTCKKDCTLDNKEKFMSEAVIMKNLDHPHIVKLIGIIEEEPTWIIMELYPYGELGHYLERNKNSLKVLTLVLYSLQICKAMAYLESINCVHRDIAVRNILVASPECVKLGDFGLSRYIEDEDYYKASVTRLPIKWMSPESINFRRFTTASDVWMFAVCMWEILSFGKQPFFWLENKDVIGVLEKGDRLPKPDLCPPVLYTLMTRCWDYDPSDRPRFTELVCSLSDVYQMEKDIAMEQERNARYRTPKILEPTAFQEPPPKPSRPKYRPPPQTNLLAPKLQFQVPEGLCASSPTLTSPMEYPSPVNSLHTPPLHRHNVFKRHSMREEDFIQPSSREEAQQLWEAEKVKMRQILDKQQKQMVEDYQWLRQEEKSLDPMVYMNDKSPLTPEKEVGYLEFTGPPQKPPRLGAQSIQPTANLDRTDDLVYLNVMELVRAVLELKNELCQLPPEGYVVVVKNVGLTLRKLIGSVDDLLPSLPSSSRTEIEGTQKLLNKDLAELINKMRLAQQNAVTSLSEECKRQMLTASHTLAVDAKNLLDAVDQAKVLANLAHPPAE

[9] = molecular target: T7, Insulin receptor-related protein (Homo sapiens, UniProt P14616); experiment: Selectivity interaction (Ambit kinase binding assay panel) EUB0000609a INSRR; settings: at 10 µM
[10] = molecular target: Activated CDC42 kinase 1 (Homo sapiens, UniProt Q07912); experiment: Selectivity interaction (Enzymatic assay) EUB0000609a TNK2
[11] = molecular target: Non-receptor tyrosine-protein kinase TNK1 (Homo sapiens, UniProt Q13470); experiment: Selectivity interaction (Enzymatic assay) EUB0000609a TNK1
[12] = molecular target: T8, Insulin receptor (Homo sapiens, UniProt P06213); experiment: Selectivity interaction (Enzymatic assay) EUB0000609a INSR
T8 sequence (P06213 28-758 limits assumed): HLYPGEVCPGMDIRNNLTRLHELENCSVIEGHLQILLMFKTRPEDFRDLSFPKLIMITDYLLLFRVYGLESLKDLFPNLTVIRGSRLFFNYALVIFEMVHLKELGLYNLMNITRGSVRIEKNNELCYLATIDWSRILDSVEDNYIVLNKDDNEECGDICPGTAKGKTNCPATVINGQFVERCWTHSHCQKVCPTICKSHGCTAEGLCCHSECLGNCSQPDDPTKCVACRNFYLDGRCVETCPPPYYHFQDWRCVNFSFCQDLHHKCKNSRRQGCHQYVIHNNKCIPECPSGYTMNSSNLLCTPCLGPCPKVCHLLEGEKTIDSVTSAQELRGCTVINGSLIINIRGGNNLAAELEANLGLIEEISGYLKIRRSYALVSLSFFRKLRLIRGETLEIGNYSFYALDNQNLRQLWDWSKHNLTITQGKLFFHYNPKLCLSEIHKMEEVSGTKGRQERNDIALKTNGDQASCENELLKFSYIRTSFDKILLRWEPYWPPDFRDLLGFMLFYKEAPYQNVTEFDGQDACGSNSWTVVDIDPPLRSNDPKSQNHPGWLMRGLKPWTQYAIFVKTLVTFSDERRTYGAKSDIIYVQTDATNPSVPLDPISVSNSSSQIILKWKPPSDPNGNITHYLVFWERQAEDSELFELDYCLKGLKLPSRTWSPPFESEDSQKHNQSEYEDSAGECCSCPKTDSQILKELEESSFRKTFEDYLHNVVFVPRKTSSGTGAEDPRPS
T8 sequence (P06213 763-1382 limits assumed): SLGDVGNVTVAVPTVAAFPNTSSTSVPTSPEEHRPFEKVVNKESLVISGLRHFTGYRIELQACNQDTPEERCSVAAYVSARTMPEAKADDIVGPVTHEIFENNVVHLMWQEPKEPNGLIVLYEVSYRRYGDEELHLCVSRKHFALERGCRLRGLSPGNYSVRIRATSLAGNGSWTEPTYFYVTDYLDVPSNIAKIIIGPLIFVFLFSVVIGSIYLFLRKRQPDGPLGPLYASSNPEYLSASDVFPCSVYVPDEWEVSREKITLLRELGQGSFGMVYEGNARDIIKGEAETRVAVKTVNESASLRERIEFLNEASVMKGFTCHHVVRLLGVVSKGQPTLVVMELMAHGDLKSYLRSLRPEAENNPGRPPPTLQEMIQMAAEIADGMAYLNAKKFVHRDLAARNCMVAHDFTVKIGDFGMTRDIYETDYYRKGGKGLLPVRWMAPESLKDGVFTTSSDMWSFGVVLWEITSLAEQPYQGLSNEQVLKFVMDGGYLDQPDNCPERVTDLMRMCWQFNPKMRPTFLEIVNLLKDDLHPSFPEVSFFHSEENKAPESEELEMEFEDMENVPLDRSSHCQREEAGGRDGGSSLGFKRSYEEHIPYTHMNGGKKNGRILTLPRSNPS

[13] = molecular target: Focal adhesion kinase 1 (Homo sapiens, UniProt Q05397); experiment: Selectivity interaction (Enzymatic assay) EUB0000609a PTK2
[14] = molecular target: T4, ALK tyrosine kinase receptor; experiment: Selectivity interaction (Enzymatic assay) EUB0000609a ALK
[15] = molecular target: T6, Protein-tyrosine kinase 2-beta; experiment: Selectivity interaction (Ambit kinase binding assay panel) EUB0000609a PTK2B; settings: at 10 µM
Target sequence in this assay (Q14289 whole entry, looked up): as the sequence (Q14289 whole entry) above

[16] = molecular target: Dual specificity mitogen-activated protein kinase kinase 4 (Homo sapiens) (UniProt P45985); experiment: Selectivity interaction (Ambit kinase binding assay panel) EUB0000609a MAP2K4; settings: at 10 µM
[17] = molecular target: T9, Cyclin-G-associated kinase (Homo sapiens) (UniProt O14976); experiment: Selectivity interaction (Ambit kinase binding assay panel) EUB0000609a GAK; settings: at 10 µM
T9 sequence (whole entry): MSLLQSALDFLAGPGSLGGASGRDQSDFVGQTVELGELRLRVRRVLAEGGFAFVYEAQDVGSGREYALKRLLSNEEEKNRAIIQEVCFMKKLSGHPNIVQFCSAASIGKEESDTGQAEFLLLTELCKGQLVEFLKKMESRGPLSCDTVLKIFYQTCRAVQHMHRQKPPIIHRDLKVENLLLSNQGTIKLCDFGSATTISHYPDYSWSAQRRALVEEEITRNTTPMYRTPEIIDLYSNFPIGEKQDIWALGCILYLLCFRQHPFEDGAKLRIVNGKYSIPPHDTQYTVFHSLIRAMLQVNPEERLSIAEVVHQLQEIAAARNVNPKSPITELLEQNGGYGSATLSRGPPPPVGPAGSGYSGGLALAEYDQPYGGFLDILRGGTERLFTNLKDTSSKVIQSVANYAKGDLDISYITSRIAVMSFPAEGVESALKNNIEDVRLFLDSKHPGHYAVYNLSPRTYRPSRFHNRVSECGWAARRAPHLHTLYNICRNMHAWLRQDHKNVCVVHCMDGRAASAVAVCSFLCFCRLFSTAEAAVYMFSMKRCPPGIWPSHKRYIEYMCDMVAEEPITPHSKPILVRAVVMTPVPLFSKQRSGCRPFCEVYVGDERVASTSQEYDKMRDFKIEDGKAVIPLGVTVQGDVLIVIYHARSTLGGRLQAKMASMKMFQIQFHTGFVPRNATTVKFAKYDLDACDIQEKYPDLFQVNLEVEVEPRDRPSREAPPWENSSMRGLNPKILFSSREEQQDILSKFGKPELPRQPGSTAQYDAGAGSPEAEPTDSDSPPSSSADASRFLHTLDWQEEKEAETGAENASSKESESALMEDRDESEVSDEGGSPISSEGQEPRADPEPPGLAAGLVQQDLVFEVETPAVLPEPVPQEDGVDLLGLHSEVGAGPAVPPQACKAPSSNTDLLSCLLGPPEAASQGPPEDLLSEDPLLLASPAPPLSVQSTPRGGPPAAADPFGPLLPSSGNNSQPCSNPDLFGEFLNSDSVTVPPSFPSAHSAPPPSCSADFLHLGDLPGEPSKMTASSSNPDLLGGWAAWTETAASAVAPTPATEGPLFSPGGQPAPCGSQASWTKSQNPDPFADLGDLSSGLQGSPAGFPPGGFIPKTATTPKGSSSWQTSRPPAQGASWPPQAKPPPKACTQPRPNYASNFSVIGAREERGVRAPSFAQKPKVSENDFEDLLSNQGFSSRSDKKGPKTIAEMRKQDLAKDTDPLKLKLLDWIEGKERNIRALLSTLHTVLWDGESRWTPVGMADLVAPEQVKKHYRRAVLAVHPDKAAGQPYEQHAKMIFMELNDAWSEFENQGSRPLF

[18] = molecular target: T3, Dual specificity protein kinase CLK1; experiment: Selectivity interaction (Ambit kinase binding assay panel) EUB0000609a CLK1; settings: at 10 µM
[19] = molecular target: T7, Insulin receptor-related protein; experiment: Selectivity interaction (Enzymatic assay) EUB0000609a INSRR
[20] = molecular target: T8, Insulin receptor; experiment: Selectivity interaction (Ambit kinase binding assay panel) EUB0000609a INSR; settings: at 10 µM
[21] = molecular target: T5, Insulin-like growth factor 1 receptor; experiment: Selectivity interaction (Enzymatic assay) EUB0000609a IGF1R
[22] = molecular target: T2, Leukocyte tyrosine kinase receptor; experiment: Selectivity interaction (Enzymatic assay) EUB0000609a LTK
[23] = molecular target: Serine/threonine-protein kinase RIO3 (Homo sapiens) (UniProt O14730); experiment: Selectivity interaction (Ambit kinase binding assay panel) EUB0000609a RIOK3; settings: at 10 µM
[24] = molecular target: Cyclin-G-associated kinase (Homo sapiens, UniProt O14976); experiment: Selectivity interaction (Enzymatic assay) EUB0000609a GAK
[25] = molecular target: Mitogen-activated protein kinase 8 (Homo sapiens, UniProt P45983); experiment: Selectivity interaction (Ambit kinase binding assay panel) EUB0000609a MAPK8; settings: at 10 µM
[26] = molecular target: T10, Tyrosine-protein kinase JAK3 (Homo sapiens) (UniProt P52333); experiment: Selectivity interaction (KinomeScan (DiscoverX)) EUB0000715a JAK3; settings: at 100 nM
T10 sequence (whole entry): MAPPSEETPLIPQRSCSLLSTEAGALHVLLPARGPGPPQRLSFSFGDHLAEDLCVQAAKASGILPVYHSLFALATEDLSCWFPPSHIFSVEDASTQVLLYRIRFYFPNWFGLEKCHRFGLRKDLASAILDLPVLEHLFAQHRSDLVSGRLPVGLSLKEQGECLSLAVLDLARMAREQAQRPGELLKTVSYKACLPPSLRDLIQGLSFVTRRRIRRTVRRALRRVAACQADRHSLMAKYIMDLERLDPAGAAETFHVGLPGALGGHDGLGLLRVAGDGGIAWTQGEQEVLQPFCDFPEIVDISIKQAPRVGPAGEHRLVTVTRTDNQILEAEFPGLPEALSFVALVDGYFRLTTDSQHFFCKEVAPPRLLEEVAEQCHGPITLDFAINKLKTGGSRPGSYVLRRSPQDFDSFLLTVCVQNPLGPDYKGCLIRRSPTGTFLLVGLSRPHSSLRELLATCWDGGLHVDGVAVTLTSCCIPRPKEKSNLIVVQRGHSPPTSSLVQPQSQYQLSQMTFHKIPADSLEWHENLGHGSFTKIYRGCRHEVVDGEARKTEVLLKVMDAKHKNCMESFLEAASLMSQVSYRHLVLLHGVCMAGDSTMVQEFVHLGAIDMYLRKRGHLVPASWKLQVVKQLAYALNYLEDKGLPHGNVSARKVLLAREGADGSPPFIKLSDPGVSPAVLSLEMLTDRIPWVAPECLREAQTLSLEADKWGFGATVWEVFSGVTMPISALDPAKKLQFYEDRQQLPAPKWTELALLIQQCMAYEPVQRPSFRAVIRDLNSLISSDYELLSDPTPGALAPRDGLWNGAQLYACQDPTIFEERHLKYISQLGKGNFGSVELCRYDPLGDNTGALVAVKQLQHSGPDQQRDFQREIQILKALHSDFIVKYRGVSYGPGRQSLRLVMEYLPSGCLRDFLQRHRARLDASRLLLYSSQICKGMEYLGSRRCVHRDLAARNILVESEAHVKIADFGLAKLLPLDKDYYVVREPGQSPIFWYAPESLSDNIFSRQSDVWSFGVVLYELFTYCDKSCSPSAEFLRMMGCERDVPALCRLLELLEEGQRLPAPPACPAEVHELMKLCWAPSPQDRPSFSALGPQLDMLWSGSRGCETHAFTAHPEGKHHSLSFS

[27] = molecular target: T11, Sodium/nucleoside cotransporter 2 (Homo sapiens, UniProt O43868); experiment: Selectivity interaction (Enzymatic assay (PanLabs Profiling)) EUB0000715a SLC28A2
T11 sequence (O43868 whole entry): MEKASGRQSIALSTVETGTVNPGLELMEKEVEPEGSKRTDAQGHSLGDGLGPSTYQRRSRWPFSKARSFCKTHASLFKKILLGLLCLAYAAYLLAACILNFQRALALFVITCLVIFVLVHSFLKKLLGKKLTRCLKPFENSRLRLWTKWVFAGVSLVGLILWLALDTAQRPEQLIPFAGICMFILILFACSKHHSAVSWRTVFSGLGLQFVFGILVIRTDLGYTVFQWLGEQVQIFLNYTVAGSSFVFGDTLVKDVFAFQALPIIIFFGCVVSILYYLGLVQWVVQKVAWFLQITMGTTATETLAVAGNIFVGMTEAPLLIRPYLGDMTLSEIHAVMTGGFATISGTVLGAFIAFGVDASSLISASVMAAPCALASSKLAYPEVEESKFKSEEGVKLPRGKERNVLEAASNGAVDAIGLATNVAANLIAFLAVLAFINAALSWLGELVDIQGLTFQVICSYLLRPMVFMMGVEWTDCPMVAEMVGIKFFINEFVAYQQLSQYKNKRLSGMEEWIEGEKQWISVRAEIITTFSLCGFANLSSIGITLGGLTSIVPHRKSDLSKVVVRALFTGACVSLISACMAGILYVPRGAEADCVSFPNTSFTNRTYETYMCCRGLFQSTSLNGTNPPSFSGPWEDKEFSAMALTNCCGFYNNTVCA

[28] = molecular target: T12, Mitogen-activated protein kinase kinase kinase 13 (Homo sapiens) (UniProt O43283); experiment: Selectivity interaction (KinomeScan (DiscoverX)) EUB0000715a MAP3K13; settings: at 100 nM
T12 sequence (whole entry): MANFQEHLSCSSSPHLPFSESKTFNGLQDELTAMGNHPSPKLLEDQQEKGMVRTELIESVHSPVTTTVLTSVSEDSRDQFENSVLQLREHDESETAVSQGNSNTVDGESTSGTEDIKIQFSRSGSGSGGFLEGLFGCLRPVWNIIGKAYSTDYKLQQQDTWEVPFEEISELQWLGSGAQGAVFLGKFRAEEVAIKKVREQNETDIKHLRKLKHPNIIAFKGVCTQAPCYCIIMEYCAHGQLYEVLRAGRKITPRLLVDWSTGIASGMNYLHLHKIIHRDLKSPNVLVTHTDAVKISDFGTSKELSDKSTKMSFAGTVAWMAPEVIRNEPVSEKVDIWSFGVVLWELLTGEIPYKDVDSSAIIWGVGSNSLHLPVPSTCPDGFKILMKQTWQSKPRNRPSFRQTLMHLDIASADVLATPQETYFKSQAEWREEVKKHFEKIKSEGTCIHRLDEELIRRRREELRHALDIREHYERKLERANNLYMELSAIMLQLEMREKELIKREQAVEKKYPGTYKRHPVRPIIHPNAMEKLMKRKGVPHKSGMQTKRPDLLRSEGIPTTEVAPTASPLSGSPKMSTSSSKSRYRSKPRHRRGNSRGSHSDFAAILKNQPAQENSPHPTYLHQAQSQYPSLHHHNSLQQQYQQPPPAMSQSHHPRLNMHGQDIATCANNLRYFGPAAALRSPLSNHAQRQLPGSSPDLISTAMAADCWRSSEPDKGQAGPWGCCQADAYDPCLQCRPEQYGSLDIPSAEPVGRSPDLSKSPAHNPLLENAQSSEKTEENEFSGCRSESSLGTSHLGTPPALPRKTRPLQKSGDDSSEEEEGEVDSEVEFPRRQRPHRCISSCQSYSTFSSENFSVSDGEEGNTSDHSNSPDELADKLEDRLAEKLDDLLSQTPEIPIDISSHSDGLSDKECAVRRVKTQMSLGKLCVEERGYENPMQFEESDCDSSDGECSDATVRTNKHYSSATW

[29] = molecular target: Epidermal growth factor receptor (Homo sapiens, UniProt P00533); experiment: Selectivity interaction (KinomeScan (DiscoverX)) EUB0000715a EGFR; settings: at 100 nM

T1 sequence (P28482 whole entry): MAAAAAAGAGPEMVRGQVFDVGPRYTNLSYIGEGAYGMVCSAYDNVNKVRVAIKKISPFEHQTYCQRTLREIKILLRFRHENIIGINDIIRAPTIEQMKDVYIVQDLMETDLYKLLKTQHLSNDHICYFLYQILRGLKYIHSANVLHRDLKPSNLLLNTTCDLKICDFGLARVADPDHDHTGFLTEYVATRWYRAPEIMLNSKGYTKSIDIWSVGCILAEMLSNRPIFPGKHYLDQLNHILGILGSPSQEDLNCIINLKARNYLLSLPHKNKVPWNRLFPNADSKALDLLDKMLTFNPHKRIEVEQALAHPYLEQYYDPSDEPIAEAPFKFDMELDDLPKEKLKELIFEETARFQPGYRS

## COc1cc(N2CCC(O)CC2)ccc1Nc1cc(Nc2ccccc2S(=O)(=O)C(C)C)c2cc[nH]c2n1
[1]
  % of control: 6%
[2]
  % of control: 1.2%
[3]
  % of control: 0.1%
[4]
  IC50: 1900 nM
[5]
  IC50: 2900 nM
[6]
  % of control: 8.9%
[7]
  % of control: 0.9%
[8]
  IC50: 280 nM
[9]
  % of control: 2%
[10]
  IC50: 3100 nM
[11]
  IC50: 2600 nM
[12]
  IC50: 470 nM
[13]
  IC50: 440 nM
[14]
  IC50: 21 nM
[15]
  % of control: 0.5%
[16]
  % of control: 6.2%
[17]
  % of control: 5.4%
[18]
  % of control: 7.3%
[19]
  IC50: 1200 nM
[20]
  % of control: 0.15%
[21]
  IC50: 750 nM
[22]
  IC50: 29 nM
[23]
  % of control: 0.5%
[24]
  IC50: 1100 nM
[25]
  % of control: 5.2%

## C[C@@H]1CN(c2cc(-c3n[nH]c4ccc(OC5(C)CC5)cc34)ncn2)C[C@H](C)O1 [MLi-2]
[26]
  % of control: 0%
[27]
  IC50: 9700 nM
[28]
  % of control: 0%
[29]
  % of control: 43%
